Values quoted from earlier work, collected in patent US20060014839A1, “Combination of angiotensin II receptor blocker and beta-blocker for secondary prevention of myocardial infarction” (priority 2002, published 2006).

Test system: elderly patients with heart failure
Conditions: losartan versus captopril 50 mg t.i.d.

CCCCc1nc(Cl)c(CO)n1Cc1ccc(-c2ccccc2-c2nn[nH]n2)cc1 [losartan]
tolerability and increase in serum creatinine (primary objective): no significant differences | all-cause mortality (722 patients, 49 deaths, preliminary): statistically significant reduction
